Tests used:
MAGL [1] = target: T1, MAGL (Mus musculus, UniProt O35678); assay: biochemical; settings: mouse; in vitro competitive ABPP; read-out: Mouse (IC50 value, nM) MAGL
T1 sequence (O35678 1-303): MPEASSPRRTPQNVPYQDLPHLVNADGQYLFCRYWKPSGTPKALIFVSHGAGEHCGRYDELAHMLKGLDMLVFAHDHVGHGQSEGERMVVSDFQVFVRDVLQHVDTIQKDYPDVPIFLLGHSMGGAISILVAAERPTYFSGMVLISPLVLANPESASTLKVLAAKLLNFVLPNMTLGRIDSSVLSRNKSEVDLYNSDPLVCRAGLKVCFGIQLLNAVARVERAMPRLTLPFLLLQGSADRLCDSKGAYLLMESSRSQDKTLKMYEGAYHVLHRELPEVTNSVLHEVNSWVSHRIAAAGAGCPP

FAAH [2] = target: T2, FAAH (Mus musculus, UniProt O08914); assay: In vitro competitive activity-based protein profiling (Table 2, % inhibition at 1 μM); type: biochemical; settings: read-out: % Inhibition at 1 μM FAAH
T2 sequence (O08914 1-579): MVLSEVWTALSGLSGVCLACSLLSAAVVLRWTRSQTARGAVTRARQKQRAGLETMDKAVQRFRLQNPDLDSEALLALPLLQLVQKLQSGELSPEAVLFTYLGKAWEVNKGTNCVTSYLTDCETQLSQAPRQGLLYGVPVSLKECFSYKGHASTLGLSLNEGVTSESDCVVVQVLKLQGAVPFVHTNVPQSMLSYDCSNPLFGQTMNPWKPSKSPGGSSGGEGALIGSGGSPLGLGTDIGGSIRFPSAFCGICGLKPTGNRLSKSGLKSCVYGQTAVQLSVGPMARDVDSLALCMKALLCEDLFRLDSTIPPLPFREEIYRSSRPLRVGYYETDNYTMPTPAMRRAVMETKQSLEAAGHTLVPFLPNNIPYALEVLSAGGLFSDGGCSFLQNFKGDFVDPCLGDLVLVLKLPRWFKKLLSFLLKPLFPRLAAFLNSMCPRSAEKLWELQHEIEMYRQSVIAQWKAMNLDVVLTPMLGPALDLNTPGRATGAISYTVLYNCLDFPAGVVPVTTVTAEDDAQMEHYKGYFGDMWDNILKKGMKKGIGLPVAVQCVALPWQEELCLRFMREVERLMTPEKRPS

ABHD6 [3] = target: T3, ABHD6 (Mus musculus, UniProt Q8R2Y0); assay: as above; type: biochemical; settings: read-out: % Inhibition at 1 μM ABHD6
T3 sequence (Q8R2Y0 1-336): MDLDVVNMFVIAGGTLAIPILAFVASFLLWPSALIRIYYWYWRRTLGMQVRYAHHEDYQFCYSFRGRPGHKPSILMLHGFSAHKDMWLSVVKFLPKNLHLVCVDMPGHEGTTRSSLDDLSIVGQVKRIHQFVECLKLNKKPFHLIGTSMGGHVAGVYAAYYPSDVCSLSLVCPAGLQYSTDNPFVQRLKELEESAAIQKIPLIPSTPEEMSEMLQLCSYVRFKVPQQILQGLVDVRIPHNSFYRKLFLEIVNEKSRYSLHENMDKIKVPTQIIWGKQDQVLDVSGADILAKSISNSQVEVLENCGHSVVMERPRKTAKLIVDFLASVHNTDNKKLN

MAGL [4] = target: T1, MAGL; assay: as above; type: biochemical; settings: read-out: % Inhibition at 1 μM MAGL
Method: After 30 min, FP—Rh (1.0 μL, 50 μM in DMSO) was added and the mixture was incubated for another 30 min at 37° C. Reactions were quenched with SDS loading buffer (50 μL-4×) and run on SDS-PAGE.
Cell lysates were diluted with mock proteomes for use in competitive ABPP experiments.

ABHD6 [5] = target: T3, ABHD6; assay: biochemical; settings: in vitro competitive ABPP
FAAH [6] = target: T2, FAAH; assay: biochemical; settings: in vitro competitive ABPP

Structure (SMILES) | IC50 (MAGL [1]) [nM] | inhibition at 1 µM (FAAH [2]) [%] | inhibition at 1 µM (ABHD6 [3]) [%] | inhibition at 1 µM (MAGL [4]) [%] | IC50 (ABHD6 [5]) [nM] | IC50 (FAAH [6]) [nM]
Cc1cccc(CN2CC3CN(C(=O)OC(C(F)(F)F)C(F)(F)F)CC3C2)c1N1CCCCC1 (stereo not drawn) [Example 30, 1,1,1,3,3,3-Hexafluoropropan-2-yl 5-[[3-methyl-2-(piperidin-1-yl)phenyl]methyl]-octahydropyrrolo[3,4-c]pyrrole-2-carboxylate] | 100 to 1000 | < 25 | < 25 | > 75 | 1000 to 10000 | > 10000
CN1CCN(c2c(Cl)cccc2CN2CC3CN(C(=O)OC(C(F)(F)F)C(F)(F)F)CC3C2)CC1 (stereo not drawn) [Example 171, 1,1,1,3,3,3-hexafluoropropan-2-yl 5-[[3-chloro-2-(4-methylpiperazin-1-yl)phenyl]methyl]-octahydropyrrolo[3,4-c]pyrrole-2-carboxylate] | 100 to 1000 | < 25 | < 25 | > 75 | 1000 to 10000 | > 10000
CC1COCCN1c1ccc(CN2CC3CN(C(=O)ON4C(=O)CCC4=O)CC3C2)c(Cl)c1 (stereo not drawn) [Example 102, 2,5-Dioxopyrrolidin-1-yl 5-[[2-chloro-4-(3-methylmorpholin-4-yl)phenyl]methyl]-octahydropyrrolo[3,4-c]pyrrole-2-carboxylate] | 100 to 1000 | 25 to 75 | < 25 | 25 to 75 | 1000 to 10000 | 1000 to 10000
O=C(OC(C(F)(F)F)C(F)(F)F)N1CC2CN(Cc3cc(CN4CCCC4)ccc3OC(F)(F)F)CC2C1 (stereo not drawn) [Example 190, 1,1,1,3,3,3-hexafluoropropan-2-yl 5-(5-(pyrrolidin-1-ylmethyl)-2-(trifluoromethoxy)benzyl)hexahydropyrrolo[3,4-c]pyrrole-2(1H)-carboxylate] | 100 to 1000 | < 25 | < 25 | > 75 | 1000 to 10000 | 1000 to 10000
O=C(OC(C(F)(F)F)C(F)(F)F)N1CC2CN(Cc3ccc(C(F)F)cc3N3CCOCC3)CC2C1 (stereo not drawn) [Example 203, 1,1,1,3,3,3-hexafluoropropan-2-yl 5-(4-(difluoromethyl)-2-morpholinobenzyl)hexahydropyrrolo[3,4-c]pyrrole-2(1H)-carboxylate] | < 100 | < 25 | 25 to 75 | > 75 | 1000 to 10000 | 1000 to 10000
Cn1nc(-c2cccc(F)c2)cc1CN1CC2CN(C(=O)OC(C(F)(F)F)C(F)(F)F)CC2C1 (stereo not drawn) [Example 195, 1,1,1,3,3,3-hexafluoropropan-2-yl 5-((3-(3-fluorophenyl)-1-methyl-1H-pyrazol-5-yl)methyl)hexahydropyrrolo[3,4-c]pyrrole-2(1H)-carboxylate] | < 100 | < 25 | 25 to 75 | > 75 | 100 to 1000 | 1000 to 10000
CCn1ncc(CN2CC3CN(C(=O)OC(C(F)(F)F)C(F)(F)F)CC3C2)c1C(=O)NCc1ccccc1 (stereo not drawn) [Example 75, 1,1,1,3,3,3-Hexafluoropropan-2-yl 5-((5-(benzylcarbamoyl)-1-ethyl-1H-pyrazol-4-yl)methyl)hexahydropyrrolo[3,4-c]pyrrole-2(1H)-carboxylate] | < 100 | < 25 | > 75 | > 75 | 100 to 1000 | 1000 to 10000
O=C(OC(C(F)(F)F)C(F)(F)F)N1CC2CN(Cc3ccc(C(F)(F)F)cc3N3CC4COCC4C3)CC2C1 (stereo not drawn) [Example 210, 1,1,1,3,3,3-hexafluoropropan-2-yl 5-(2-(tetrahydro-1H-furo[3,4-c]pyrrol-5(3H)-yl)-4-(trifluoromethyl)benzyl)hexahydropyrrolo[3,4-c]pyrrole-2(1H)-carboxylate] | < 100 | < 25 | < 25 | > 75 | 1000 to 10000 | 1000 to 10000
O=C(OC(C(F)(F)F)C(F)(F)F)N1CC2CN(Cc3cccc(Cl)c3N3CCOCC3)CC2C1 (stereo not drawn) [Example 44, 1,1,1,3,3,3-Hexafluoropropan-2-yl 5-[[3-chloro-2-(morpholin-4-yl)phenyl]methyl]-octahydropyrrolo[3,4-c]pyrrole-2-carboxylate] | < 100 | < 25 | < 25 | > 75 | 1000 to 10000 | 1000 to 10000
CCn1ncc(CN2CC3CN(C(=O)OC(C(F)(F)F)C(F)(F)F)CC3C2)c1C(=O)NCC1CC1 (stereo not drawn) [Example 179, 1,1,1,3,3,3-hexafluoropropan-2-yl 5-((5-((cyclopropylmethyl)carbamoyl)-1-ethyl-1H-pyrazol-4-yl)methyl)hexahydropyrrolo[3,4-c]pyrrole-2(1H)-carboxylate] | < 100 | < 25 | 25 to 75 | > 75 | 100 to 1000 | > 10000
Cc1c(CN2CC3CN(C(=O)OC(C(F)(F)F)C(F)(F)F)CC3C2)cccc1N1CCC(F)(F)CC1 (stereo not drawn) [Example 153, 1,1,1,3,3,3-hexafluoropropan-2-yl 5-[[3-(4,4-difluoropiperidin-1-yl)-2-methylphenyl]methyl]-octahydropyrrolo[3,4-c]pyrrole-2-carboxylate] | < 100 | 25 to 75 | < 25 | > 75 | > 10000 | 1000 to 10000
O=C(OC(C(F)(F)F)C(F)(F)F)N1CC2CN(Cc3ccc(C(=O)N4CCCC4)c(OC(F)(F)F)c3)CC2C1 (stereo not drawn) [Example 193, 1,1,1,3,3,3-hexafluoropropan-2-yl 5-(4-(pyrrolidine-1-carbonyl)-3-(trifluoromethoxy)benzyl)hexahydropyrrolo[3,4-c]pyrrole-2(1H)-carboxylate] | 100 to 1000 | < 25 | 25 to 75 | > 75 | 1000 to 10000 | > 10000
CCc1cc(CN2CC3CN(C(=O)OC(C(F)(F)F)C(F)(F)F)CC3C2)n(C2CCOCC2)n1 (stereo not drawn) [Example 156, 1,1,1,3,3,3-hexafluoropropan-2-yl 5-[[3-ethyl-1-(oxan-4-yl)-1H-pyrazol-5-yl]methyl]-octahydropyrrolo[3,4-c]pyrrole-2-carboxylate] | < 100 | < 25 | < 25 | > 75 | 1000 to 10000 | 1000 to 10000
CC(=O)N1CCN(c2ccc(CN3CC4CN(C(=O)OC(C(F)(F)F)C(F)(F)F)CC4C3)c(F)c2)CC1 (stereo not drawn) [Example 26, 1,1,1,3,3,3-Hexafluoropropan-2-yl 5-[[4-(4-acetylpiperazin-1-yl)-2-fluorophenyl]methyl]-octahydropyrrolo[3,4-c]pyrrole-2-carboxylate] | 100 to 1000 | < 25 | 25 to 75 | > 75 | 1000 to 10000 | 1000 to 10000
O=C(OC(C(F)(F)F)C(F)(F)F)N1CC2CN(Cc3ccc(Cl)cc3N3Cc4cccnc4C3)CC2C1 (stereo not drawn) [Example 32, 1,1,1,3,3,3-Hexafluoropropan-2-yl 5-[(4-chloro-2-[5H,6H,7H-pyrrolo[3,4-b]pyridin-6-yl]phenyl)methyl]-octahydropyrrolo[3,4-c]pyrrole-2-carboxylate] | < 100 | 25 to 75 | 25 to 75 | > 75 | 1000 to 10000 | 1000 to 10000
